Results reported in PubChem BioAssay (NCI).
Values joined by “and” are separate entries in the source; they are usually repeats but may differ in a detail not shown here. Identical values can stand only once.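 Assay format: 96-well plates, 48-hour exposure. GI50: concentration for 50% inhibition of growth. TGI marks complete inhibition of growth.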

Tests used:
Assay in all cases: NCI tumour cell line growth inhibition, 48 h
HOP-92 NSCLC = tested on: HOP-92 NSCLC
LXFL 529 NSCLC = tested on: LXFL 529 NSCLC
MALME-3M melanoma = tested on: MALME-3M melanoma
A549 NSCLC = tested on: A549 NSCLC
HOP-18 NSCLC = tested on: HOP-18 NSCLC
UO-31 renal = tested on: UO-31 renal
DMS 114 small cell lung = tested on: DMS 114 small cell lung
HS 578T breast = tested on: HS 578T breast
DMS 273 small cell lung = tested on: DMS 273 small cell lung
K-562 leukemia = tested on: K-562 leukemia
MOLT-4 leukemia = tested on: MOLT-4 leukemia

| Structure (SMILES) | TGI (HOP-92 NSCLC) | TGI (LXFL 529 NSCLC) [µM] | TGI (MALME-3M melanoma) | TGI (A549 NSCLC) | TGI (HOP-18 NSCLC) [µM] | TGI (UO-31 renal) [µM] | TGI (DMS 114 small cell lung) [µM] | TGI (HS 578T breast) [µM] | TGI (DMS 273 small cell lung) [µM] | GI50 (K-562 leukemia) [µM] | TGI (K-562 leukemia) | GI50 (HOP-92 NSCLC) [µM] | GI50 (MALME-3M melanoma) [µM] | GI50 (A549 NSCLC) [µM] | GI50 (UO-31 renal) | GI50 (MOLT-4 leukemia) [µM] | TGI (MOLT-4 leukemia) |
| --- | --- | --- | --- | --- | --- | --- | --- | --- | --- | --- | --- | --- | --- | --- | --- | --- | --- |
| CCCC(O)[C@@]1(CC)CC(C)C(O)(C2(C)C[C@H](C)[C@@H](C(CC)C(=O)C(C)[C@@H](O)[C@H](C)C3OC(O)(C(CC)C(=O)O)[C@@H](C)C(O)C3CC)O2)O1 (stereo partly specified) | 1.75 µM | 3.91 | 0.392 µM | 5.71 µM | 23.9 | 3.18 | 1.08 | 2.99 | 5.93 |  |  |  |  |  |  |  |  |
| CC[n+]1c(-c2ccccc2)c2cc(N)ccc2c2ccc(N)cc21 | 10.6 µM and 14.6 µM | 2.94 | 2.9 µM and 6.43 µM | 48.3 µM and 76.7 µM and > 95.1 µM | 18.3 | > 100 | 10.1 | 5.86 | 10.7 | 1.75 | 30.1 µM and 50.5 µM and 35.3 µM | 1.24 | 0.631 | 2.17 | 21.4 µM and 86.9 µM and 27.2 µM | 2.77 | 21.1 µM and 13 µM and 35.9 µM |
